Measured values reported in patent US12240840B2, “Amide-substituted heterocyclic compounds for the treatment of conditions related to the modulation of IL-12, IL-23 and/or IFN-alpha” (BRISTOL-MYERS SQUIBB COMPANY, priority 2018, dated 2025).

tested on: IFNα-induced pSTAT5 (pY694) in CD3 positive cells of human whole blood; assay: IFNα-Induced STAT Phosphorylation in Human Whole Blood; type: cell-based; details: Homo sapiens, 1 h compound incubation, 1000 U/mL recombinant human IFNα A/D for 15 min, pSTAT5 in CD3 positive population, read-out: Human WB IFNα-Induced Stat Phosph. (IC50)
Procedure: IFNα-Induced STAT Phosphorylation in Human Whole Blood
After an hour long incubation with compound, human whole blood (drawn with either EDTA or ACD-A as anti-coagulant) was stimulated with 1000 U/mL recombinant human IFNα A/D (R&D Systems 11200-2) for 15 min. The stimulation was stopped by adding Fix/Lyse buffer (BD 558049). Cells were stained with a CD3 FITC antibody (BD 555916), washed, and permeabilized on ice using Perm III buffer (BD 558050). Cells were then stained with an Alexa-Fluor 647 pSTAT5 (pY694) antibody (BD 612599) for 30 min prior to analysis on the FACS Canto II. The amount of pSTAT5 expression was quantitated by median fluorescence intensity after gating on the CD3 positive population.
IFNα-Induced STAT Phosphorylation in Human Whole Blood Inhibition Data ND—no data available

Row | SMILES | IC50 [nM]
1 | [2H]C([2H])([2H])NC(=O)c1nnc(Nc2ccc(C)nn2)cc1Nc1cccc(-c2ncc(C(=O)N(C)C)s2)c1OC [Example 384] | 40
2 | [2H]C([2H])([2H])NC(=O)c1nnc(NC(=O)C2CC2)cc1Nc1cccc(-c2noc(CN)n2)c1OC [Example 6, 4-((3-(5-(aminomethyl)-1,2,4-oxadiazol-3-yl)-2-methoxyphenyl)amino)-6-(cyclopropanecarboxamido)-N-trideuteromethylpyridazine-3-carboxamide] | 110
3 | COc1c(Nc2cc(NC(=O)C3CC3)nnc2C(N)=O)cccc1-c1ncc(C(=O)NCCC2CCCN2C)o1 (stereo not shown) [Example 415] | 40
4 | [2H]C([2H])([2H])NC(=O)c1cnc(NC(=O)C2CC2)cc1Nc1cccc(-c2nc(CCO)no2)c1OC [Example 228] | 180
5 | [2H]C([2H])([2H])NC(=O)c1nnc(NC(=O)C2CC2)cc1Nc1cccc(-c2noc(C3CCCO3)n2)c1OC (stereo not shown) [Example 81] | 180
6 | [2H]C([2H])([2H])NC(=O)c1nnc(Nc2ccc(OC)nn2)cc1Nc1cccc(-c2ncc(CN)s2)c1OC [Example 389] | 570
7 | [2H]C([2H])([2H])NC(=O)c1nnc(Nc2ccc(OCC)nn2)cc1Nc1cc(F)cc(-c2cc(C(C)(C)O)n(C)n2)c1OC [Example 545] | 220
8 | [2H]C([2H])([2H])NC(=O)c1nnc(NC(=O)C2CC2)cc1Nc1cccc(-c2ncc(C(=O)N3CC4CN(C)CC4C3)s2)c1OC (stereo not shown) [Example 274] | 50
9 | [2H]C([2H])([2H])NC(=O)c1nnc(NC(=O)C2CC2)cc1Nc1cccc(-c2cnc(C(=O)N(C)C)s2)c1OC [Example 239, 5-(3-((6-(cyclopropanecarboxamido)-3-((methyl-d3)carbamoyl)pyridazin-4-yl)amino)-2-methoxyphenyl)-N,N-dimethylthiazole-2-carboxamide] | 50
10 | [2H]C([2H])([2H])NC(=O)c1nnc(NC(=O)C2CC2)cc1Nc1cccc(-c2nc(CC(=O)NCCOC)no2)c1OC [Example 176] | 450
11 | [2H]C([2H])([2H])NC(=O)c1nnc(NC(=O)C2CC2)cc1Nc1cccc(-c2ncc(C(=O)NCCC(N)=O)s2)c1OC [Example 311] | 200
12 | COc1c(Nc2cc(NC(=O)C3CC3)nnc2C(N)=O)cccc1-c1noc(CN(C)S(=O)(=O)C2CC2)n1 [Example 9] | 16
13 | [2H]C([2H])([2H])NC(=O)c1nnc(NC(=O)C2CC2)cc1Nc1cccc(-c2nc(C)c(C(=O)N3C[C@@H](C)O[C@@H](C)C3)s2)c1OC [Example 362] | 270
14 | [2H]C([2H])([2H])NC(=O)c1cnc(NC(=O)C2CC2)cc1Nc1cc(F)cc(-c2csc(C(=O)NCCOC)n2)c1OC [Example 574] | 700
15 | [2H]C([2H])([2H])NC(=O)c1nnc(NC(=O)C2CC2)cc1Nc1cccc(-c2ncc(C(=O)N3C4CCC3CN(C)C4)s2)c1OC [Example 288] | 90
16 | [2H]C([2H])([2H])NC(=O)c1nnc(NC(=O)C2CC2)cc1Nc1cccc(-c2cc(C(=O)NCC(O)CO)n(C)n2)c1OC (stereo not shown) [Example 521] | 2410
17 | [2H]C([2H])([2H])NC(=O)c1nnc(NC(=O)C2CC2)cc1Nc1cccc(-c2nc([C@H](C)NS(C)(=O)=O)no2)c1OC [Example 184] | 130
18 | [2H]C([2H])([2H])NC(=O)c1nnc(NC(=O)C2CC2)cc1Nc1cccc(-c2ncc(C(=O)N3CC(N(C)C)C3)s2)c1OC [Example 334] | 50
19 | [2H]C([2H])([2H])NC(=O)c1nnc(NC(=O)C2CC2)cc1Nc1cccc(-c2ncc(C(=O)N3CCC(CCO)CC3)s2)c1OC [Example 297] | 30
20 | COc1c(Nc2cc(NC(=O)C3CC3)nnc2C)cccc1-c1ncn(C)n1 [Example 409, N-(5-((2-methoxy-3-(1-methyl-1H-1,2,4-triazol-3-yl)phenyl)amino)-6-methylpyridazin-3-yl)cyclopropanecarboxamide] | > 10000
21 | [2H]C([2H])([2H])NC(=O)c1cnc(NC(=O)C2CC2)cc1Nc1cccc(-c2nc(CCOC(C)(C)C)no2)c1OC [Example 227] | 620
22 | [2H]C([2H])([2H])NC(=O)c1nnc(NC(=O)C2CC2)cc1Nc1cccc(-c2ncc(C(=O)N3CCC(N(CC)CC)CC3)s2)c1OC [Example 343] | 22
23 | [2H]C([2H])([2H])NC(=O)c1cnc(NC(=O)CC)cc1Nc1cccc(-c2noc(COCC)n2)c1OC [Example 87] | 460
24 | [2H]C([2H])([2H])NC(=O)c1nnc(NC(=O)C2CC2)cc1Nc1cccc(-c2nc(CO)no2)c1OC [Example 174] | 560
25 | [2H]C([2H])([2H])NC(=O)c1nnc(NC(=O)C2CC2)cc1Nc1cccc(-c2nc([C@H](C)N)no2)c1OC [Example 181] | 630
26 | [2H]C([2H])([2H])NC(=O)c1nnc(NC(=O)C2CC2)cc1Nc1cccc(-c2nc(C)c(C(=O)NC3CCC(N(C)C)CC3)s2)c1OC (stereo not shown) [Example 365] | 320
27 | COc1c(Nc2cc(NC(=O)C3CC3)nnc2C(N)=O)cccc1-c1noc(CN2CCOCC2)n1 [Example 8] | 21
28 | [2H]C([2H])([2H])NC(=O)c1nnc(NC(=O)C2CC2)cc1Nc1cccc(-c2nc(CN)no2)c1OC [Example 143] | 320

Row | SMILES | IC50 [nM]
29 | COc1c(Nc2cc(N)nnc2C(N)=O)cccc1-c1ncc(C(=O)NCCC2CCCN2C)s1 (stereo not shown) [Example 377] | 1410
30 | [2H]C([2H])([2H])NC(=O)c1nnc(NC(=O)C2CC2)cc1Nc1cccc(-c2noc(CNC(C)=O)n2)c1OC [Example 31] | 380
31 | [2H]C([2H])([2H])NC(=O)c1nnc(NC(=O)C2CC2)cc1Nc1cccc(-c2nc(C3(NC(C)=O)CC3)no2)c1OC [Example 165] | 530
32 | [2H]C([2H])([2H])NC(=O)c1nnc(Nc2cnn(C)n2)cc1Nc1cccc(-c2ncc(C(C)O)s2)c1OC (stereo not shown) [Example 385] | 180
33 | [2H]C([2H])([2H])NC(=O)c1nnc(NC(=O)C2CC2)cc1Nc1cccc(-c2nc(CNC(=O)CN3CCN(S(C)(=O)=O)CC3)no2)c1OC [Example 163] | 1760
34 | [2H]C([2H])([2H])NC(=O)c1nnc(NC(=O)C2CC2)cc1Nc1cccc(-c2ccn(CCNC(C)=O)n2)c1OC [Example 468] | 270
35 | [2H]C([2H])([2H])NC(=O)c1nnc(NC(=O)C2CC2)cc1Nc1cccc(-c2nc(C3(N)CC3)no2)c1OC [Example 156] | 630
36 | [2H]C([2H])([2H])NC(=O)c1nnc(NC(=O)C2CC2)cc1Nc1cccc(-c2nc(CN3CCN(C(=O)OC(C)(C)C)CC3=O)no2)c1OC [Example 137] | 2640
37 | [2H]C([2H])([2H])NC(=O)c1nnc(NC(=O)C2CC2)cc1Nc1cccc(-c2cnn(CCO)n2)c1OC [Example 450] | 200
38 | [2H]C([2H])([2H])NC(=O)c1nnc(NC(=O)C2CC2)cc1Nc1cccc(-c2noc(CN3CC(O)C3)n2)c1OC [Example 80] | 110
39 | CCC(C(=O)NCCOC)c1nc(-c2cccc(Nc3cc(NC(=O)C4CC4)nnc3C(N)=O)c2OC)no1 (stereo not shown) [Example 56] | 120
40 | [2H]C([2H])([2H])NC(=O)c1nnc(NC(=O)C2CC2)cc1Nc1cccc(-c2cc(C(=O)N3CCC3)n(C)n2)c1OC [Example 538] | 390
41 | [2H]C([2H])([2H])NC(=O)c1nnc(NC(=O)C2CC2)cc1Nc1cccc(-c2nc(CNS(C)(=O)=O)no2)c1OC [Example 146] | 210
42 | [2H]C([2H])([2H])NC(=O)c1nnc(Nc2ccc(OC)nn2)cc1Nc1cccc(-c2ncc(CNC(C)=O)s2)c1OC [Example 387] | 270
43 | [2H]C([2H])([2H])NC(=O)c1nnc(NC(=O)C2CC2)cc1Nc1cccc(-c2ncc(C(=O)NCC3CCN(C)C3)s2)c1OC (stereo not shown) [Example 326] | 30
44 | [2H]C([2H])([2H])NC(=O)c1nnc(NC(=O)C2CC2)cc1Nc1cccc(-c2nc(CN3CCC(O)CC3)no2)c1OC [Example 207] | 480
45 | COc1c(Nc2cc(NC(=O)C3CC3)nnc2C(N)=O)cccc1-c1ncc(C(=O)NCCC2CCCN2C)s1 (stereo not shown) [Example 247] | 100
46 | [2H]C([2H])([2H])NC(=O)c1nnc(NC(=O)C2CC2)cc1Nc1cc(F)cc(-c2ncc(C(=O)N(C)C)s2)c1OC [Example 277] | 240
47 | [2H]C([2H])([2H])NC(=O)c1nnc(Nc2cc(C)n(C)n2)cc1Nc1cc(F)cc(-c2cc(C(=O)NS(C)(=O)=O)n(C)n2)c1OC [Example 552] | 3600
48 | [2H]C([2H])([2H])NC(=O)c1nnc(NC(=O)C2CC2)cc1Nc1cccc(-c2cnn(CCNC(=O)CC3CCCO3)n2)c1OC (stereo not shown) [Example 438] | 2890
49 | COc1c(Nc2cc(NC(=O)C3CC3)nnc2C(N)=O)cccc1-c1ncc(C(=O)N2CCC(CCO)CC2)o1 [Example 416] | 460
50 | COc1c(Nc2cc(NC(=O)C3CC3)ncc2C(N)=O)cccc1-c1cnn(CCNC(=O)CC#N)n1 [Example 446] | 270
51 | [2H]C([2H])([2H])NC(=O)c1nnc(NC(=O)C2CC2)cc1Nc1cc(F)cc(-c2cc(C(=O)N3CCN(C(C)C)CC3)n(C)n2)c1OC [Example 518] | 150
52 | [2H]C([2H])([2H])NC(=O)c1nnc(NC(=O)C2CC2)cc1Nc1cccc(-c2ccn(CCNC[C@H](O)CC)n2)c1OC [Example 474] | 3560
53 | [2H]C([2H])([2H])NC(=O)c1nnc(NC(=O)C2CC2)cc1Nc1cccc(-c2nc(CN(C)C(=O)CC#N)no2)c1OC [Example 171] | 690
54 | [2H]C([2H])([2H])NC(=O)c1nnc(NC(=O)C2CC2)cc1Nc1cc(F)cc(-c2cc(C(=O)N3CCC(CCO)CC3)n(C)n2)c1OC [Example 509] | 170
55 | [2H]C([2H])([2H])NC(=O)c1nnc(NC(=O)C2CC2)cc1Nc1cccc(-c2noc(C3(O)CC3)n2)c1OC [Example 74] | 170
